Results as given in article PMC9519552, “Activation of the human insulin receptor by non-insulin-related peptides” (Nature Communications, 2022).
Where two headings read alike, the source gives them in different places. Positions of bridges follow the written chain, without caps; N, C: chain ends. Residues, ends and D or L forms follow the SMILES beside them.

Columns and labels:
human IR-A (holoIR-A) = target: T1, human IR-A (holoIR-A) (Homo sapiens, UniProt P06213); assay: holoIR-A competitive radioligand binding assay (scintillation proximity assay); settings: for reduction in ki for hIR-A on substitution: relative to control peptide IM172N22 devoid of N-terminal phenylacetylation
T1 construct: expressed in transfected cells; host or cells: HEK293 (ATCC #CRL-1573), stably transfected; membrane preparation
Method in brief: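 Membranes from HEK293 cells stably expressing C9-tagged human IR-A were used in a WGA-bead SPA competition assay in 50 mM Tris-HCl pH 7.5, 150 mM NaCl, 0.1% fatty-acid-free BSA. Ten-point 3-fold dilutions were incubated 10 h at room temperature before scintillation counting. Percent specific inhibition was calculated after nonspecific-binding correction, from three independent runs.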

[1] = target: T2, human holoIR-A over-expressed in HEK293 cells (Homo sapiens, UniProt P06213); assay: Inhibition of hIR phosphorylation by peptides, co-incubated with BHI at its EC50 (ELISA); type: cell-based; settings: for hIRA Phosph IC50 Run 1 / hIRA Phosph IC50 Run 2 / hIRA Phosph IC50 Run 3: inhibition of insulin-stimulated phosphorylation; for hIRA Phosph IC50 Run 1: BHI at its EC50, run 1; for hIRA Phosph IC50 Run 2: BHI at its EC50, run 2; for hIRA Phosph IC50 Run 3: BHI at its EC50, run 3; for IC50: read-out: hIRA Phosph IC50 Mean
T2 construct: expressed in transfected cells; host or cells: HEK293, stably transfected
Method in brief: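 Phosphorylation ELISA (TMB, A450) after anti-C9 capture of lysates from stably transfected HEK293 cells expressing C-terminally C9-tagged human holoIR-A, serum-starved overnight in 0.1% BSA/DMEM. Percent specific response versus log concentration, from three independent runs on three days.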

[2] = IM172N22(-) mutant peptide set, run 1, read-out: hIRA Binding Ki Run 1
[3] = IM172N22(-) mutant peptide set, run 2, read-out: hIRA Binding Ki Run 2
[4] = IM172N22(-) mutant peptide set, run 3, read-out: hIRA Binding Ki Run 3
[5] = IM172N22(-) mutant peptide set, mean of 3 runs, read-out: hIRA Binding Ki Mean

T1 sequence (P06213 28-1370 isoform P06213-2 limits assumed): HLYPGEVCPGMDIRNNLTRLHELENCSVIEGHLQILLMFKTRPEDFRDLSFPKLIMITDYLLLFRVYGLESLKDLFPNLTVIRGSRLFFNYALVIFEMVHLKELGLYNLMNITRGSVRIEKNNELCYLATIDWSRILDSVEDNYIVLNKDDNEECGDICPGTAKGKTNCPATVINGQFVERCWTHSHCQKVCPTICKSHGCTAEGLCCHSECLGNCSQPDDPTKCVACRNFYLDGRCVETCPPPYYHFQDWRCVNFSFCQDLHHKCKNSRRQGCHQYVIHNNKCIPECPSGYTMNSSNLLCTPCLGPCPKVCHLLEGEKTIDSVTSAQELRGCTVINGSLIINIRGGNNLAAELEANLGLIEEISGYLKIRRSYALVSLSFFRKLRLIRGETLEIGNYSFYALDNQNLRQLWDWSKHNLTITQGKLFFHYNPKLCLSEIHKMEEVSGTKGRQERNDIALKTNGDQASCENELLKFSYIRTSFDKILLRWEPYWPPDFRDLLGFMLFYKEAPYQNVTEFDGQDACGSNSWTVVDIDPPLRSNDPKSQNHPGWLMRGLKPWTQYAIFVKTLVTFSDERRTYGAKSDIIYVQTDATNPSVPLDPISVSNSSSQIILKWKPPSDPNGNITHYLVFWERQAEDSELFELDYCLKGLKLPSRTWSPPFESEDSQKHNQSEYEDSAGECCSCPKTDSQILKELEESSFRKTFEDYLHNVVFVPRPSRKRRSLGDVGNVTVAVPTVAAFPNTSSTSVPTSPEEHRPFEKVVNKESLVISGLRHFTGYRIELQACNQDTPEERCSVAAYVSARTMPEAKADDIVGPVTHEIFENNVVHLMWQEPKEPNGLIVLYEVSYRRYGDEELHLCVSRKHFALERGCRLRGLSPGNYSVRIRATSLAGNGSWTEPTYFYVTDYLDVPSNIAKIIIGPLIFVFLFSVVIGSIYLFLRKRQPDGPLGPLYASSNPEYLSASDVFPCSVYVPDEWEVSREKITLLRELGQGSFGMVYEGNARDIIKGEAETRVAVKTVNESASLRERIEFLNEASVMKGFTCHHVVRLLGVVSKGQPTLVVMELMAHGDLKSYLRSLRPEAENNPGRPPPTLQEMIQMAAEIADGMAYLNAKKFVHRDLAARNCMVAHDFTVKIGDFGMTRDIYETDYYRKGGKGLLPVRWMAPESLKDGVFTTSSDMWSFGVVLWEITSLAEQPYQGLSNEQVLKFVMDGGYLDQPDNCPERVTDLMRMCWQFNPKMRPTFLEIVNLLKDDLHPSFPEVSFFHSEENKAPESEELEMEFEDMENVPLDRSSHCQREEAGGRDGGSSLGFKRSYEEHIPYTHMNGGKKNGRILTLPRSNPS
T1 sequence (P06213 763-1382 partner limits assumed): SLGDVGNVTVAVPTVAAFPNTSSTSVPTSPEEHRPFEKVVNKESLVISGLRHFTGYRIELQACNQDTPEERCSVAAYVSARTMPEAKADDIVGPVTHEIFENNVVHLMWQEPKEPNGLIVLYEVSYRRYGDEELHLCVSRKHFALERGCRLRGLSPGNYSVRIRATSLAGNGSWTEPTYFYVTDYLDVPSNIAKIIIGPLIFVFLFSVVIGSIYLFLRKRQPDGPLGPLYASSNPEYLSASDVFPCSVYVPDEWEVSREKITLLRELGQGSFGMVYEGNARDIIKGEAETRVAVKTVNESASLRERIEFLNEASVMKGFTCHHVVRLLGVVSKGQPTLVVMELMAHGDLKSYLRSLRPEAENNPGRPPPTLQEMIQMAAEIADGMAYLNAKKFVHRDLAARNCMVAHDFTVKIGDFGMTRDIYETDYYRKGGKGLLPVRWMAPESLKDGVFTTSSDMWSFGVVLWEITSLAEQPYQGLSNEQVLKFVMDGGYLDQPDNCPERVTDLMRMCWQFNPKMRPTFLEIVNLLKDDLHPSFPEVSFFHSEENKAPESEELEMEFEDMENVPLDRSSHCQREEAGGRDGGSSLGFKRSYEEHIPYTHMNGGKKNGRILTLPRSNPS
T2 sequence (P06213 28-1370 isoform P06213-2 limits assumed): as the sequence (P06213 28-1370 isoform P06213-2 limits assumed) above
T2 sequence (P06213 763-1382 partner limits assumed): as the sequence (P06213 763-1382 partner limits assumed) above

SMILES: CC[C@H](C)[C@H](NC(=O)[C@H](CCC(N)=O)NC(=O)[C@H](C)NC(=O)[C@H](Cc1c[nH]c2ccccc12)NC(=O)[C@H](CCC(=O)O)NC(=O)[C@H](CCC(=O)O)NC(=O)[C@H](CCC(=O)O)NC(=O)[C@H](CC(C)C)NC(=O)[C@H](CO)NC(C)=O)C(=O)N[C@@H](CCC(=O)O)C(=O)N[C@H]1CSSC[C@@H](C(=O)N2CCC[C@H]2C(=O)N2CCC[C@H]2C(=O)N[C@@H](CO)C(=O)N[C@@H](CCC(=O)O)C(=O)N[C@@H](CO)C(N)=O)NC(=O)[C@H](CCCNC(=N)N)NC(=O)CNC(=O)[C@H](Cc2ccc(O)cc2)NC(=O)[C@H](C(C)C)NC(=O)[C@H](CCC(=O)O)NC1=O [IM172N22-] (Ac-SLEEEWAQIECEVYGRCPPSES-NH2; disulfide 11-17)
- Ki (human IR-A (holoIR-A); [2]): 7.07 nM
- Ki (human IR-A (holoIR-A); [3]): 8.06 nM
- Ki (human IR-A (holoIR-A); [4]): 9.36 nM
- Ki (human IR-A (holoIR-A); read-out: hIRA Binding Ki Mean): 8.16 nM
- hIRA Phosph IC50 Run 1 [1]: 85 nM
- hIRA Phosph IC50 Run 2 [1]: 76 nM
- hIRA Phosph IC50 Run 3 [1]: 80 nM
- IC50 [1]: 80.3 nM

SMILES: CC[C@H](C)[C@H](NC(=O)[C@H](CCC(N)=O)NC(=O)[C@H](C)NC(=O)[C@H](Cc1c[nH]c2ccccc12)NC(=O)[C@H](C)NC(=O)[C@H](CCC(=O)O)NC(=O)[C@H](CCC(=O)O)NC(=O)[C@H](CC(C)C)NC(=O)[C@H](CO)NC(C)=O)C(=O)N[C@@H](CCC(=O)O)C(=O)N[C@H]1CSSC[C@@H](C(=O)N2CCC[C@H]2C(=O)N2CCC[C@H]2C(=O)N[C@@H](CO)C(=O)N[C@@H](CCC(=O)O)C(=O)N[C@@H](CO)C(N)=O)NC(=O)[C@H](CCCNC(=N)N)NC(=O)CNC(=O)[C@H](Cc2ccc(O)cc2)NC(=O)[C@H](C(C)C)NC(=O)[C@H](CCC(=O)O)NC1=O [Peptide E5A] (Ac-SLEEAWAQIECEVYGRCPPSES-NH2; disulfide 11-17)
- Ki (human IR-A (holoIR-A); [5]): 98 nM
- Ki (human IR-A (holoIR-A); [2]): 107 nM
- Ki (human IR-A (holoIR-A); [3]): 98 nM
- Ki (human IR-A (holoIR-A); [4]): 89.4 nM
- hIRA Phosph IC50 Run 1 [1]: 316 nM
- hIRA Phosph IC50 Run 2 [1]: 264 nM
- hIRA Phosph IC50 Run 3 [1]: 378 nM
- IC50 [1]: 319 nM

SMILES: CC[C@H](C)[C@H](NC(=O)[C@H](CCC(N)=O)NC(=O)[C@H](C)NC(=O)[C@H](Cc1c[nH]c2ccccc12)NC(=O)[C@H](CCC(=O)O)NC(=O)[C@H](CCC(=O)O)NC(=O)[C@H](CCC(=O)O)NC(=O)[C@H](CC(C)C)NC(=O)[C@H](CO)NC(C)=O)C(=O)N[C@@H](CCC(=O)O)C(=O)N[C@H]1CSSC[C@@H](C(=O)N2CCC[C@H]2C(=O)N2CCC[C@H]2C(=O)N[C@@H](CO)C(=O)N[C@@H](CCC(=O)O)C(=O)N[C@@H](CO)C(N)=O)NC(=O)[C@H](CCCNC(=N)N)NC(=O)CNC(=O)[C@H](Cc2ccc(O)cc2)NC(=O)[C@H](C)NC(=O)[C@H](CCC(=O)O)NC1=O [Peptide V13A] (Ac-SLEEEWAQIECEAYGRCPPSES-NH2; disulfide 11-17)
- Ki (human IR-A (holoIR-A); [5]): 215 nM
- Ki (human IR-A (holoIR-A); [2]): 203 nM
- Ki (human IR-A (holoIR-A); [3]): 265 nM
- Ki (human IR-A (holoIR-A); [4]): 177 nM
- hIRA Phosph IC50 Run 1 [1]: 2321 nM
- hIRA Phosph IC50 Run 2 [1]: 2401 nM
- hIRA Phosph IC50 Run 3 [1]: 2832 nM
- IC50 [1]: 2520 nM

SMILES: CC[C@H](C)[C@H](NC(=O)[C@H](CCC(N)=O)NC(=O)[C@H](C)NC(=O)[C@H](Cc1c[nH]c2ccccc12)NC(=O)[C@H](CCC(=O)O)NC(=O)[C@H](CCC(=O)O)NC(=O)[C@H](C)NC(=O)[C@H](CC(C)C)NC(=O)[C@H](CO)NC(C)=O)C(=O)N[C@@H](CCC(=O)O)C(=O)N[C@H]1CSSC[C@@H](C(=O)N2CCC[C@H]2C(=O)N2CCC[C@H]2C(=O)N[C@@H](CO)C(=O)N[C@@H](CCC(=O)O)C(=O)N[C@@H](CO)C(N)=O)NC(=O)[C@H](CCCNC(=N)N)NC(=O)CNC(=O)[C@H](Cc2ccc(O)cc2)NC(=O)[C@H](C(C)C)NC(=O)[C@H](CCC(=O)O)NC1=O [Peptide E3A] (Ac-SLAEEWAQIECEVYGRCPPSES-NH2; disulfide 11-17)
- Ki (human IR-A (holoIR-A); [5]): 342 nM
- Ki (human IR-A (holoIR-A); [2]): 335 nM
- Ki (human IR-A (holoIR-A); [3]): 353 nM
- Ki (human IR-A (holoIR-A); [4]): 337 nM
- hIRA Phosph IC50 Run 1 [1]: 1212 nM
- hIRA Phosph IC50 Run 2 [1]: 1189 nM
- hIRA Phosph IC50 Run 3 [1]: 1302 nM
- IC50 [1]: 1230 nM

SMILES: CC[C@H](C)[C@H](NC(=O)[C@H](CCC(N)=O)NC(=O)[C@H](C)NC(=O)[C@H](Cc1c[nH]c2ccccc12)NC(=O)[C@H](CCC(=O)O)NC(=O)[C@H](CCC(=O)O)NC(=O)[C@H](CCC(=O)O)NC(=O)[C@H](CC(C)C)NC(=O)[C@H](CO)NC(C)=O)C(=O)N[C@@H](CCC(=O)O)C(=O)N[C@H]1CSSC[C@@H](C(=O)N2CCC[C@H]2C(=O)N2CCC[C@H]2C(=O)N[C@@H](CO)C(=O)N[C@@H](CCC(=O)O)C(=O)N[C@@H](CO)C(N)=O)NC(=O)[C@H](CCCNC(=N)N)NC(=O)CNC(=O)[C@H](C)NC(=O)[C@H](C(C)C)NC(=O)[C@H](CCC(=O)O)NC1=O [Peptide Y14A] (Ac-SLEEEWAQIECEVAGRCPPSES-NH2; disulfide 11-17)
- Ki (human IR-A (holoIR-A); [5]): > 4240 nM
- Ki (human IR-A (holoIR-A); [2]): > 1210 nM
- Ki (human IR-A (holoIR-A); [3]): > 4160 nM
- Ki (human IR-A (holoIR-A); [4]): > 4240 nM
- binding of the mutant peptide to hIR-A (in words) (human IR-A (holoIR-A); alanine substitution in IM172N22(-)): no detectable binding
- hIRA Phosph IC50 Run 1 [1]: >10000 nM
- hIRA Phosph IC50 Run 2 [1]: >10000 nM
- hIRA Phosph IC50 Run 3 [1]: >10000 nM
- IC50 [1]: > 10000 nM

SMILES: CC[C@H](C)[C@H](NC(=O)[C@H](CCC(N)=O)NC(=O)[C@H](C)NC(=O)[C@H](Cc1c[nH]c2ccccc12)NC(=O)[C@H](CCC(=O)O)NC(=O)[C@H](CCC(=O)O)NC(=O)[C@H](CCC(=O)O)NC(=O)[C@H](CC(C)C)NC(=O)[C@H](CO)NC(C)=O)C(=O)N[C@@H](CCC(=O)O)C(=O)N[C@H]1CSSC[C@@H](C(=O)N2CCC[C@H]2C(=O)N2CCC[C@H]2C(=O)N[C@@H](CO)C(=O)N[C@@H](CCC(=O)O)C(=O)N[C@@H](C)C(N)=O)NC(=O)[C@H](CCCNC(=N)N)NC(=O)CNC(=O)[C@H](Cc2ccc(O)cc2)NC(=O)[C@H](C(C)C)NC(=O)[C@H](CCC(=O)O)NC1=O [Peptide S22A] (Ac-SLEEEWAQIECEVYGRCPPSEA-NH2; disulfide 11-17)
- Ki (human IR-A (holoIR-A); [5]): 16.2 nM
- Ki (human IR-A (holoIR-A); [2]): 14.6 nM
- Ki (human IR-A (holoIR-A); [3]): 16.1 nM
- Ki (human IR-A (holoIR-A); [4]): 17.8 nM
- reduction in ki for hIR-A on substitution (human IR-A (holoIR-A)): lower than 5 fold
- hIRA Phosph IC50 Run 1 [1]: 78 nM
- hIRA Phosph IC50 Run 2 [1]: 103 nM
- hIRA Phosph IC50 Run 3 [1]: 88 nM
- IC50 [1]: 89.8 nM

SMILES: CC[C@H](C)[C@H](NC(=O)[C@H](CCC(N)=O)NC(=O)[C@H](C)NC(=O)[C@H](Cc1c[nH]c2ccccc12)NC(=O)[C@H](CCC(=O)O)NC(=O)[C@H](CCC(=O)O)NC(=O)[C@H](CCC(=O)O)NC(=O)[C@H](CC(C)C)NC(=O)[C@H](CO)NC(C)=O)C(=O)N[C@@H](CCC(=O)O)C(=O)N[C@H]1CSSC[C@@H](C(=O)N2CCC[C@H]2C(=O)N2CCC[C@H]2C(=O)N[C@@H](CO)C(=O)N[C@@H](CCC(=O)O)C(=O)N[C@@H](CO)C(N)=O)NC(=O)[C@H](CCC(=O)O)NC(=O)CNC(=O)[C@H](Cc2ccc(O)cc2)NC(=O)[C@H](C(C)C)NC(=O)[C@H](CCC(=O)O)NC1=O [Peptide R16E] (Ac-SLEEEWAQIECEVYGECPPSES-NH2; disulfide 11-17)
- Ki (human IR-A (holoIR-A); [5]): 167 nM
- Ki (human IR-A (holoIR-A); [2]): 145 nM
- Ki (human IR-A (holoIR-A); [3]): 184 nM
- Ki (human IR-A (holoIR-A); [4]): 172 nM
- hIRA Phosph IC50 Run 1 [1]: 1117 nM
- hIRA Phosph IC50 Run 2 [1]: 1161 nM
- hIRA Phosph IC50 Run 3 [1]: 1465 nM
- IC50 [1]: 1250 nM

SMILES: CC[C@H](C)[C@H](NC(=O)[C@H](CCC(N)=O)NC(=O)[C@H](C)NC(=O)[C@H](Cc1c[nH]c2ccccc12)NC(=O)[C@H](CCC(=O)O)NC(=O)[C@H](CCC(=O)O)NC(=O)[C@H](CCC(=O)O)NC(=O)[C@H](CC(C)C)NC(=O)[C@H](CO)NC(C)=O)C(=O)N[C@@H](CCC(=O)O)C(=O)N[C@H]1CSSC[C@@H](C(=O)N2CCC[C@H]2C(=O)N2CCC[C@H]2C(=O)N[C@@H](C)C(=O)N[C@@H](CCC(=O)O)C(=O)N[C@@H](CO)C(N)=O)NC(=O)[C@H](CCCNC(=N)N)NC(=O)CNC(=O)[C@H](Cc2ccc(O)cc2)NC(=O)[C@H](C(C)C)NC(=O)[C@H](CCC(=O)O)NC1=O [Peptide S20A] (Ac-SLEEEWAQIECEVYGRCPPAES-NH2; disulfide 11-17)
- Ki (human IR-A (holoIR-A); [5]): 5.4 nM
- Ki (human IR-A (holoIR-A); [2]): 4.72 nM
- Ki (human IR-A (holoIR-A); [3]): 5.70 nM
- Ki (human IR-A (holoIR-A); [4]): 5.77 nM
- reduction in ki for hIR-A on substitution (human IR-A (holoIR-A)): lower than 5 fold
- hIRA Phosph IC50 Run 1 [1]: 53 nM
- hIRA Phosph IC50 Run 2 [1]: 40 nM
- hIRA Phosph IC50 Run 3 [1]: 53 nM
- IC50 [1]: 48.5 nM
